Assay results as given in US8791143B2, “Anthranilic diamide derivatives having cyclic side-chains” (priority 2010, dated 2014).
Read-outs that look alike come from different tables or passages of the source.

Tests used:
[1] = log P by HPLC on reversed-phase columns (EEC Directive 79/831 Annex V.A8); format: physicochemical
[2] = test system: larvae of the mustard beetle (Phaedon cochleariae); assay: Phaedon test (PHAECO spray treatment); settings: for inhibition at 20 g/ha / pest or weed control at 100 g/ha / pest or weed control at 500 g/ha: Phaedon cochleariae, 168 h; for inhibition at 20 g/ha: read-out: % Activity PHAECO; for pest or weed control at 100 g/ha / pest or weed control at 500 g/ha: read-out: activity in % (beetle larvae killed)
[3] = test system: green peach aphid (Myzus persicae); assay: Myzus test (MYZUPE spray treatment); format: in vivo; settings: for pest or weed control at 100 g/ha / inhibition at 20 g/ha / inhibition at 100 g/ha / pest or weed control at 500 g/ha: Myzus persicae, 144 h; for pest or weed control at 100 g/ha / pest or weed control at 500 g/ha: read-out: activity in % (aphids killed); for inhibition at 20 g/ha / inhibition at 100 g/ha: 6 d, comparison with prior art
[4] = test system: caterpillars of the armyworm (Spodoptera frugiperda); assay: Spodoptera frugiperda test (SPODFR spray treatment); format: in vivo; settings: for pest or weed control at 100 g/ha / pest or weed control at 500 g/ha: read-out: activity in % (caterpillars killed)
[5] = application rate 100 g/ha, after 7 days
[6] = Spodoptera frugiperda, 168 h, 7 d, comparison with prior art
[7] = application rate 100 g/ha, after 6 days
[8] = reversed-phase C18 HPLC column, pH 2.7, HPLC reversed-phase C18, acidic range pH 2.7 (HCOOH), only or first value of the cell, read-out: log P
[9] = Spodoptera frugiperda, 168 h, application rate 100 g/ha, after 7 days

SMILES | chromatographic logP ([1]; pH 2.7, log P) | pest or weed control at 100 g/ha [3] [%] | pest or weed control at 100 g/ha [2] [%] | pest or weed control at 100 g/ha ([4]; Spodoptera frugiperda, 168 h) [%] | further results
Cc1cc(C#N)cc(C(=O)NC2COC2)c1NC(=O)c1cc(Cn2nnc(C(F)(F)F)n2)nn1-c1ncccc1Cl [Example 1] | 2.49 | 90 | – | – | activity in % (beetle larvae killed) [2, 5]: 100%; inhibition at 20 g/ha [3]: 100%; activity in % (caterpillars killed) [4, 5]: 100%
Cc1cc(Cl)cc(C(=O)NC2COC2)c1NC(=O)c1cc(Cn2nnc(C(F)(F)F)n2)nn1-c1ncccc1Cl [Example 2] | 2.8 | 100 | 100 | 100 | inhibition at 20 g/ha [2]: 100%; inhibition at 100 g/ha [3]: 100%; inhibition at 20 g/ha [4, 6]: 100%
Cc1cc(Br)cc(C(=O)NC2COC2)c1NC(=O)c1cc(Cn2nnc(C(F)(F)F)n2)nn1-c1ncccc1Cl [Example 3] | 2.87 | 100 | 100 | 100 | –
Cc1cc(F)cc(C(=O)NC2COC2)c1NC(=O)c1cc(Cn2nnc(C(F)(F)F)n2)nn1-c1ncccc1Cl [Example 4] | 2.53 | 100 | 100 | 100 | –
Cc1cc(I)cc(C(=O)NC2COC2)c1NC(=O)c1cc(Cn2nnc(C(F)(F)F)n2)nn1-c1ncccc1Cl [Example 6] | 3 | 80 | 100 | 100 | –
Cc1cc(C)c(NC(=O)c2cc(Cn3nnc(C(F)(F)F)n3)nn2-c2ncccc2Cl)c(C(=O)NC2COC2)c1 [Example 7] | 2.67 | 90 | 100 | 100 | –
O=C(NC1COC1)c1cc(Cl)cc(Cl)c1NC(=O)c1cc(Cn2nnc(C(F)(F)C(F)(F)F)n2)nn1-c1ncccc1Cl [Example 10] | 3.18 | – | 100 | 100 | pest or weed control at 500 g/ha [3]: 100%
Cc1cc(C#N)cc(C(=O)NC2COC2)c1NC(=O)c1cc(Cn2nnc(C(F)(F)C(F)(F)F)n2)nn1-c1ncccc1Cl [Example 14] | 2.87 | 90 | 100 | 100 | –
Cc1cc(C#N)cc(C(=O)NC2CSC2)c1NC(=O)c1cc(Cn2nnc(C(F)(F)F)n2)nn1-c1ncccc1Cl [Example 15] | 3.06 | 100 | 100 | 100 | –
Cc1cc(C#N)cc(C(=O)NC2COC2)c1NC(=O)c1cc(Cn2nnc(C(F)(F)F)n2)nn1-c1ncccc1Cl [Example 20] | – | – | 100 | 100 | log P ([1]; pH 2.7): 2.51; activity in % (aphids killed) [3, 7]: 90%
Cc1cc(C#N)cc(C(=O)NC2CSC2)c1NC(=O)c1cc(Cn2nnc(C(F)(F)F)n2)nn1-c1ccccc1Cl [Example 25] | – | – | 100 | – | chromatographic logP [1, 8]: 3.46; pest or weed control at 100 g/ha [3, 7]: 100%; pest or weed control at 100 g/ha [4, 9]: 100%
Cc1cc(C#N)cc(C(=O)NC2COC2)c1NC(=O)c1cc(Cn2nnc(C(F)(F)F)n2)nn1-c1c(Cl)cccc1Cl [Example 28] | – | – | 100 | – | chromatographic logP [1, 8]: 3.05; pest or weed control at 100 g/ha [3, 7]: 100%; pest or weed control at 100 g/ha [4, 9]: 100%
Cc1cc(C#N)cc(C(=O)NC2CCS(=O)(=O)C2)c1NC(=O)c1cc(Cn2nnc(C(F)(F)F)n2)nn1-c1ncccc1Cl (centres unmarked) [Example 29, 1-(3-chloropyridin-2-yl)-N-{4-cyano-2-[(1,1-dioxidotetrahydrothiophen-3-yl)carbamoyl]-6-methylphenyl}-3-{[5-(trifluoromethyl)-2H-tetrazol-2-yl]methyl}-1H-pyrazole-5-carboxamide] | 2.47 | – | – | – | log P (second value after the slash) ([1]; pH 2.7): 2.17; pest or weed control at 500 g/ha [2]: 100%; pest or weed control at 500 g/ha [3]: 100%; inhibition at 100 g/ha [3]: 100%; pest or weed control at 500 g/ha ([4]; Spodoptera frugiperda, 168 h): 100%
Cc1cc(C#N)cc(C(=O)NC2CCN(Cc3ccccc3)C2)c1NC(=O)c1cc(Cn2nnc(C(F)(F)C(F)(F)F)n2)nn1-c1ncccc1Cl (centres unmarked) [Example 32] | – | – | – | – | chromatographic logP [1, 8]: 2.14; pest or weed control at 500 g/ha [2]: 100%; pest or weed control at 100 g/ha [3, 7]: 90%; pest or weed control at 500 g/ha ([4]; Spodoptera frugiperda, 168 h, application rate 500 g/ha, after 7 days): 100%
Cc1cc(Cl)cc(C(=O)NC2CCS(=O)(=O)C2)c1NC(=O)c1cc(Cn2nnc(C(F)(F)F)n2)nn1-c1ncccc1Cl (centres unmarked) [Example 34] | 2.78 | 100 | 100 | 100 | –
Cc1cc(Cl)cc(C(=O)NC2CS(=O)(=O)CC2O)c1NC(=O)c1cc(Cn2nnc(C(F)(F)F)n2)nn1-c1ncccc1Cl (centres unmarked) [Example 35] | 2.58 | 80 | 100 | 100 | –
Cc1cc(C#N)cc(C(=O)NC2CCSC2=O)c1NC(=O)c1cc(Cn2nnc(C(F)(F)F)n2)nn1-c1ncccc1Cl (centres unmarked) [Example 39] | 2.89 | – | – | – | log P (second value after the slash) ([1]; pH 2.7): 2.57; pest or weed control at 500 g/ha [2]: 100%; pest or weed control at 500 g/ha [3]: 100%; pest or weed control at 500 g/ha ([4]; Spodoptera frugiperda, 168 h): 100%
Cc1cc(Cl)cc(C(=O)NN2CCN(C)C2=O)c1NC(=O)c1cc(Cn2nnc(C(F)(F)F)n2)nn1-c1ncccc1Cl [Example 41] | 2.64 | 80 | 100 | 100 | –
Cc1cc(C#N)cc(C(=O)NC2CCSCC2)c1NC(=O)c1cc(Cn2nnc(C(F)(F)F)n2)nn1-c1ccccc1Cl [Example 58] | – | – | 100 | – | chromatographic logP [1, 8]: 3.65; pest or weed control at 100 g/ha [3, 7]: 100%
Cc1cc(Cl)cc(C(=O)NCc2ncc(C(F)(F)F)cc2Cl)c1NC(=O)c1cc(Cn2nnc(C(F)(F)F)n2)nn1-c1ncccc1Cl [Example 230] | – | – | 100 | – | chromatographic logP [1, 8]: 4.23; pest or weed control at 100 g/ha [4, 9]: 100%
Cc1cc(Cl)cc(C(=O)NCc2cc(Cl)ccn2)c1NC(=O)c1cc(Cn2nnc(C(F)(F)F)n2)nn1-c1ncccc1Cl [Example 232] | 3.45 | – | 100 | 100 | –
Cc1cc(Cl)cc(C(=O)NCc2cccc(-c3ccccc3)n2)c1NC(=O)c1cc(Cn2nnc(C(F)(F)F)n2)nn1-c1ncccc1Cl [Example 233] | – | – | 100 | – | chromatographic logP [1, 8]: 4.27; pest or weed control at 100 g/ha [4, 9]: 100%
Cc1cc(Cl)cc(C(=O)NC(C)c2ccc(C(F)(F)F)cn2)c1NC(=O)c1cc(Cn2nnc(C(F)(F)F)n2)nn1-c1ncccc1Cl (centres unmarked) [Example 234] | – | – | 100 | – | chromatographic logP [1, 8]: 4.04; pest or weed control at 100 g/ha [4, 9]: 100%
Cc1cc(Cl)cc(C(=O)NCc2ccc(Cl)nc2)c1NC(=O)c1cc(Cn2nnc(C(F)(F)F)n2)nn1-c1ncccc1Cl [Example 235] | 3.42 | – | 100 | 100 | –
Cc1cc(C#N)cc(C(=O)NC2CCC2)c1NC(=O)c1cc(Cn2nnc(C(F)(F)F)n2)nn1-c1ncccc1Cl [No. 1 known WO2007/144100, reference compound] | – | – | – | – | inhibition at 20 g/ha [3]: 80%
Cc1cc(C#N)cc(C(=O)NC2CCCC2)c1NC(=O)c1cc(Cn2nnc(C(F)(F)F)n2)nn1-c1ncccc1Cl [No. 2 known WO2007/144100, reference compound] | – | – | – | – | inhibition at 100 g/ha [3]: 70%
Cc1cc(C#N)cc(C(=O)NC2CCCC2)c1NC(=O)c1cc(Cn2nnc(C(F)(F)F)n2)nn1-c1ccccc1Cl [No. 3 known WO2007/144100, reference compound] | – | – | – | – | inhibition at 100 g/ha [3]: 0%; inhibition at 100 g/ha ([4]; Spodoptera frugiperda, 168 h, 100 g/ha, 7 d, comparison with prior art): 83%
Cc1cc(Cl)cc(C(=O)NC2CCC2)c1NC(=O)c1cc(Cn2nnc(C(F)(F)F)n2)nn1-c1ncccc1Cl [No. 4 known WO2007/144100, reference compound] | – | – | – | – | inhibition at 20 g/ha [2]: 33%; inhibition at 100 g/ha [3]: 0%; inhibition at 20 g/ha [4, 6]: 83%
